In patent US8686036B2, “Methods of controlling heart rate while minimizing and/or controlling hypotension” (Baxter International Inc., priority 2011, dated 2014):
Counter-ions that a name gives are not always drawn.

Key:
[1] = Anesthetized mongrel dog model of the hypotensive potential of esmolol infusions; format: in vivo; conditions: for decrease in mean arterial pressure (MAP) from pre-infusion baseline, percent change: high dose infusion protocols, FIG. 10: 2000 μg/kg/min RS, 1000 μg/kg/min S, 1000 μg/kg/min R
Procedure: A model system utilizing anesthetized mongrel dogs was established in order to predict the hypotensive potential of esmolol hydrochloride injection in human patients. One dog was administered a formulation containing racemic esmolol hydrochloride at a loading dose of 600 μg/kg/min for 3 minutes followed by a maintenance infusion of 300 μg/kg/min for 10 minutes (referred to as 600RS/300RS) followed by a washout period (FIG. 1). In this and subsequent figures, the duration of infusion of the various medicaments is indicated by a coded horizontal line, parallel to the time axis. This protocol was repeated by administering 2000 μg/kg/min for 3 minutes followed by a maintenance infusion of 1000 μg/kg/min for 10 minutes (referred to as 2000RS/1000RS) and then by administering 400 μg/kg/min for 3 minutes followed by a maintenance infusion of 200 μg/kg/min for 10 minutes (referred to as 400RS/200RS). Mean arterial blood pressure and heart rate were monitored throughout the experiment.
While the doses administered to the dogs in the experiments described herein were larger than typical clinical doses, the doses were administered in order to increase repeatability and induce acute hypotension in close to 100% of the dogs by sufficiently increasing the effect level above background noise. Moreover, relative to esmolol administration in humans, the dog model replicates within experimental error the same dependence of mean arterial blood pressure versus infusion rate. Therefore, the conclusions reached at these relatively higher dose levels in dogs are relevant to minimization of adverse effects at lower doses in humans.
In initial experiments, the hypotensive potential of a composition comprising the S-isomer of esmolol hydrochloride was compared to a composition comprising the racemic formulation. Mean arterial blood pressure, cardiac output, and systemic vascular resistance were monitored throughout the experiments. Cardiac output and systemic vascular resistance were evaluated to understand the cause of the hypotension (i.e., decrease in cardiac output and/or decrease in systemic vascular resistance).
Each of four mongrel dogs was administered increasing doses of esmolol hydrochloride (FIGS. 2-5). Two dogs (D00028 and DG0029) received 150 μg/kg/min of the S-isomer formulation until mean arterial pressure reached a steady state, at which time the animal was immediately switched over to 300 μg/kg/min of the racemic formulation (this protocol is referred to as 150S/300RS in FIGS. 3a and 4a). Once a steady state was reached the infusion was stopped and was followed by a washout period. A similar protocol was repeated in both dogs using 300 μg/kg/min of the S-isomer of esmolol followed by administration of 600 μg/kg/min of the racemic mixture of esmolol (this protocol is 300S/600RS in FIGS. 3b and 4b). A final protocol involved administration of 1000 μg/kg/min of the S-isomer of esmolol followed by administration of 2000 μg/kg/min of the racemic mixture of esmolol followed by 1000 μg/kg/min of the S-isomer of esmolol (this protocol is referred to as 1000S/2000RS/1000S in FIGS. 3c and 4c).
A similar series of protocols were repeated with the other two dogs (DG0027 and DG0030) except the racemic mixture of esmolol was administered before the S-isomer. In other words, 300 μg/kg/min of the racemic mixture of esmolol was administered, followed by administration of 150 μg/kg/min of the S-isomer of esmolol (this protocol is referred to as 300RS/150S in FIGS. 2a and 5a), 600 μg/kg/min of the racemic mixture of esmolol was administered, followed by administration of 300 μg/kg/min of the S-isomer of esmolol (this protocol is referred to as 600RS/300S in FIGS. 2b and 5b), and 2000 μg/kg/min of the racemic mixture of esmolol was administered, followed by administration of 1000 μg/kg/min of the S-isomer of esmolol, and then 2000 μg/kg/min of the racemic mixture of esmolol again (this protocol is referred to as 2000RS/1000S/2000RS in FIGS. 2c and 5c)]. […]

[2] = as above; format: in vivo
[3] = Superimposition of dog systolic blood pressure results with human meta-analysis (Yu et al.); format: in vivo; conditions: at a given dose, FIG. 13, human data of Yu et al.
Source text: The esmolol doses administered to the dogs in the experiments described herein needed to be larger than typical clinical doses used in humans in order to increase repeatability and induce acute hypotension in close to 100% of the dogs by sufficiently increasing the effect level above background noise. To confirm that the results obtained herein with mongrel dogs are clinically relevant, data from the experimental results obtained herein were superimposed with the maximal weighted mean difference in systolic blood pressure results obtained by Yu et al. in a meta-analysis of randomized controlled clinical trials with esmolol hydrochloride (Yu et al., Anesth Analg. 2011 February; 112(2):267-81).

[4] = test system: isoproterenol-induced tachycardia; assay: Isoproterenol challenge (isoproterenol-induced tachycardia) in dogs after esmolol infusion; format: in vivo, dog; conditions: for reduction in mean arterial pressure: 10 minutes
Procedure: The purpose of this experiment was to determine if the attenuated hypotension (as assessed by mean arterial blood pressure end point) observed in Example 2 following administration of the S-isomer was associated with reduced efficacy (i.e., ability to control isoproterenol-induced tachycardia) as compared with the racemic formulations.
One dog was administered a bolus dose of isoproterenol (0.25 μg/kg) to establish a baseline heart rate response (FIG. 6a). Isoproterenol is a non-selective […] adrenergic agonist capable of inducing tachycardia. After a washout period, the racemic formulation (RS) was administered at 90 μg/kg/min for 10 minutes immediately followed by an isoproterenol challenge. After a washout period, the S-isomer formulation (S) was administered at 45 μg/kg/min for 10 minutes immediately followed by another isoproterenol challenge. This protocol was repeated using 150 μg/kg/min S-isomer followed by 300 μg/kg/min racemic formulation (FIG. 6b) then 2000 μg/kg/min racemic formulation followed by 1000 μg/kg/min S-isomer (FIG. 6c).
The experimental protocol was carried out essentially as described in Example 3. In short, each dog was administered racemic esmolol (RS) at the indicated dose for 10 minutes immediately followed by an isoproterenol challenge (a bolus dose of isoproterenol at 0.25 μg/kg). After a washout period, the S-isomer formulation (S) was administered at an equitherapeutic dose for 10 minutes immediately followed by another isoproterenol challenge. This protocol was performed at 90 μg/kg/min RS/45 μg/kg/min S (5 dogs), 300 μg/kg/min RS/150 μg/kg/min S (1 dog), 600 μg/kg/min RS/300 μg/kg/min S (3 dogs), 1000 μg/kg/min RS/500 μg/kg/min S (4 dogs), and 2000 μg/kg/min RS/1000 μg/kg/min S (3 dogs).
In order to better estimate the true differential effect in hypotensive potential between racemic esmolol and the S-isomer of esmolol at the lower dose range, data from other dogs that were not part of the isoproterenol challenge experiments, but were otherwise treated identically, were combined with the data set from FIG. 12A and presented in FIG. 12B. The additional data points were only from those dogs where a stated dose was administered first or where a sufficient wash-out period preceded the stated dose as to avoid any confounding variables. […] Thus, the lack of significant differentiation in mean arterial pressure seen at the lower doses in FIG. 12A was likely due to the relatively smaller sample size and biological variability.

[5] = cited from earlier work
beta-adrenergic = conditions: WO 88/01614; cited from earlier work
[6] = Example 1, one dog, 400RS/200RS, 600RS/300RS, 2000RS/1000RS

In the case of COC(=O)CCc1ccc(OC[C@H](O)CNC(C)C)cc1 (single isomer, unassigned) [R-isomer], the “ability to lower heart rate when experimentally increased” value ([1]; Examples 1-4) is reported as “no apparent, inherent ability to lower heart rate”, the “decrease in mean arterial pressure (MAP) from pre-infusion baseline, percent change” value (shortened to “decrease … percent change”) [1] is reported as 19% and the “cardiovascular changes following administration” value ([2]; Example 4) is reported as “qualitatively identical to those following the administration of the racemic formulation”.

For COC(=O)CCc1ccc(OCC(O)CNC(C)C)cc1 (racemic) [esmolol hydrochloride, methyl-3-[4-(2-hydroxy-3-isopropylamino)propoxy]phenylpropionate hydrochloride], the “severity of clinical hypotension (systolic blood pressure) in human patients relative to the dog model” value [3] was “more than two times as severe”, the heart rate response [1, 6] was “dose-dependent reflex tachycardia” and the “mean arterial blood pressure response” value [1, 6] was “clear dose-dependent decrease in mean arterial blood pressure”. For the same compound, the “mean arterial pressure response” value ([1]; Example 2, four dogs, 300, 600, 2000 μg/kg/min, before or after the S-isomer) was “dose-dependent decrease in mean arterial pressure in all four dogs”, the “decrease in MAP from end of first infusion to end of second infusion” value ([1]; FIG. 11, initial state S-isomer formulation, then RS racemic mixture) was 32% and the “decrease … percent change” value [1] was 40%. The “mean arterial blood pressure response” value ([4]; Example 3, one dog, RS 90, 300, 2000 μg/kg/min vs S 45, 150, 1000 μg/kg/min) was “greater dose-dependent decrease in mean arterial blood pressure relative to the S-isomer”, the “reduction in mean arterial pressure” value ([4]; Example 5, infusion rate 1000 μg/kg/min) was “about 20 mmHg” and the “patients who experienced hypotension” value ([5]; clinical trials, packaging insert) was 20-50%. The “acute hypotension in patients of Asian ancestry” value ([5]; loading infusion 500 μg/kg body weight per minute, Ko et al.) was “all patients administered this dosage experienced acute hypotension”.

In the case of COC(=O)CCc1ccc(OC[C@@H](O)CNC(C)C)cc1.Cl (single isomer, unassigned) [S-isomer], the “potency as beta-adrenergic-blocking agent relative to an equivalent amount of the racemic mixture” value (beta-adrenergic) is given as “about twice”, the “hypotension (mean arterial blood pressure) at the high dose infusion protocol” value ([1]; Example 2, 1000 μg/kg/min S-isomer vs 2000 μg/kg/min racemic mixture) is given as “significantly less hypotension relative to the racemic formulation” and the “mean arterial blood pressure during the 1000S phase” value ([1]; Example 2, 2000RS/1000S/2000RS protocol, FIG. 2c) is given as “increased”. The “increase in MAP from end of first infusion to end of second infusion” value ([1]; FIG. 11, initial state RS racemic mixture, then S-isomer) was 34%, the “decrease … percent change” value [1] was 13% and the “hypotension (mean arterial blood pressure) at the high infusion rate” value ([4]; Example 3, 1000 μg/kg/min S-isomer vs 2000 μg/kg/min racemic formulation) was “significantly less hypotension relative to the racemic formulation”. For the same compound, the “efficacy in reducing isoproterenol-induced tachycardia” value ([4]; Example 3, equitherapeutic amounts (half the racemic dose)) was “same degree of efficacy in reducing isoproterenol-induced tachycardia as compared with the racemic formulation”, the “hypotensive effect (reduction in mean arterial pressure) vs racemic esmolol” value ([4]; Example 5, doses greater than 600 μg/kg/min racemic esmolol/300 μg/kg/min S-isomer formulation) was “differed significantly” and the “reduction in mean arterial pressure” value ([4]; Example 5, equitherapeutic dose 500 μg/kg/min) was “about 10 mmHg”. For the same compound, the “percent reduction in heart rate following isoproterenol challenge vs racemic esmolol” value ([4]; Example 5, equitherapeutic dose (half the racemic dose), all doses, FIG. 12A) was “essentially identical”, the “efficacy in reducing isoproterenol-induced tachycardia” value ([4]; Example 5, equitherapeutic doses, across all doses) was “same degree of efficacy in reducing isoproterenol-induced tachycardia as compared with the racemic formulation” and the “difference in mean arterial pressure vs racemic esmolol, pooled data” value ([4]; FIG. 12B, 600 μg/kg/min racemic esmolol (7 dogs)/300 μg/kg/min S-isomer (5 dogs)) was “statistically significant difference in mean arterial pressure”. For the same compound, the “mean arterial blood pressure at the high dose infusion rate relative to the racemic formulation” value ([2]; Example 4, 1000 μg/kg/min S after 2000 μg/kg/min RS) was “improved (or increased)”.
